According to PubChem BioAssay (NCI):
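Five compound concentrations were applied to cells in 96-well plates for 48 hours; endpoints were derived by simple linear interpolation of the resulting dose-response curve. GI50 marks 50% less growth. The concentration for full growth arrest is given as TGI.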

Key:
Assay in all cases: NCI anticancer screen, dose series, 48 h
CCRF-CEM leukemia = tested on: CCRF-CEM leukemia
SW-620 colon = tested on: SW-620 colon
UACC-62 melanoma = tested on: UACC-62 melanoma
SF-268 CNS = tested on: SF-268 CNS
MALME-3M melanoma = tested on: MALME-3M melanoma
T-47D breast = tested on: T-47D breast
IGROV1 ovarian = tested on: IGROV1 ovarian
ACHN renal = tested on: ACHN renal
SNB-75 CNS = tested on: SNB-75 CNS
NCI/ADR-RES ovarian = tested on: NCI/ADR-RES ovarian
HCT-15 colon = tested on: HCT-15 colon
U251 CNS = tested on: U251 CNS
UACC-257 melanoma = tested on: UACC-257 melanoma
UO-31 renal = tested on: UO-31 renal
HT29 colon = tested on: HT29 colon
TK-10 renal = tested on: TK-10 renal
SF-295 CNS = tested on: SF-295 CNS
CAKI-1 renal = tested on: CAKI-1 renal
NCI-H226 lung = tested on: NCI-H226 lung
NCI-H460 lung = tested on: NCI-H460 lung
NCI-H522 lung = tested on: NCI-H522 lung
HS 578T breast = tested on: HS 578T breast
COLO 205 colon = tested on: COLO 205 colon
SR leukemia = tested on: SR leukemia
SK-MEL-2 melanoma = tested on: SK-MEL-2 melanoma
MOLT-4 leukemia = tested on: MOLT-4 leukemia
NCI-H23 lung = tested on: NCI-H23 lung
MDA-MB-435 = tested on: MDA-MB-435
786-0 renal = tested on: 786-0 renal
BT-549 breast = tested on: BT-549 breast
SNB-19 CNS = tested on: SNB-19 CNS
PC-3 prostate = tested on: PC-3 prostate
EKVX NSCLC = tested on: EKVX NSCLC
KM12 colon = tested on: KM12 colon
HCC-2998 colon = tested on: HCC-2998 colon
RPMI-8226 leukemia = tested on: RPMI-8226 leukemia
A549 NSCLC = tested on: A549 NSCLC
RXF 393 renal = tested on: RXF 393 renal
A498 renal = tested on: A498 renal
SK-MEL-28 melanoma = tested on: SK-MEL-28 melanoma
M14 melanoma = tested on: M14 melanoma
MDA-MB-231 breast = tested on: MDA-MB-231 breast
HOP-62 NSCLC = tested on: HOP-62 NSCLC
LOX IMVI melanoma = tested on: LOX IMVI melanoma
OVCAR-8 ovarian = tested on: OVCAR-8 ovarian
SK-OV-3 ovarian = tested on: SK-OV-3 ovarian
HL-60(TB) leukemia = tested on: HL-60(TB) leukemia
OVCAR-5 ovarian = tested on: OVCAR-5 ovarian
HOP-92 NSCLC = tested on: HOP-92 NSCLC
OVCAR-3 ovarian = tested on: OVCAR-3 ovarian
DU-145 prostate = tested on: DU-145 prostate
K-562 leukemia = tested on: K-562 leukemia
HCT-116 colon = tested on: HCT-116 colon
SK-MEL-5 melanoma = tested on: SK-MEL-5 melanoma
OVCAR-4 ovarian = tested on: OVCAR-4 ovarian
SN12C renal = tested on: SN12C renal
SF-539 CNS = tested on: SF-539 CNS

SMILES: OCC1C(O)C(O)[C@@H]2SCCN12 (stereo partly specified)
- TGI (CCRF-CEM leukemia): > 100 µM
- TGI (SW-620 colon): > 100 µM
- TGI (UACC-62 melanoma): > 100 µM
- TGI (SF-268 CNS): > 100 µM
- TGI (MALME-3M melanoma): > 100 µM
- TGI (T-47D breast): > 100 µM
- TGI (IGROV1 ovarian): > 100 µM
- TGI (ACHN renal): > 100 µM
- TGI (SNB-75 CNS): > 100 µM
- TGI (NCI/ADR-RES ovarian): > 100 µM
- TGI (HCT-15 colon): > 100 µM
- TGI (U251 CNS): > 100 µM
- TGI (UACC-257 melanoma): > 100 µM
- TGI (UO-31 renal): > 100 µM
- TGI (HT29 colon): > 100 µM
- TGI (TK-10 renal): > 100 µM
- TGI (SF-295 CNS): > 100 µM
- TGI (CAKI-1 renal): > 100 µM
- TGI (NCI-H226 lung): > 100 µM
- TGI (NCI-H460 lung): > 100 µM
- TGI (NCI-H522 lung): > 100 µM
- TGI (HS 578T breast): > 100 µM
- TGI (COLO 205 colon): > 100 µM
- TGI (SR leukemia): > 100 µM
- TGI (SK-MEL-2 melanoma): > 100 µM
- TGI (MOLT-4 leukemia): > 100 µM
- TGI (NCI-H23 lung): > 100 µM
- TGI (MDA-MB-435): > 100 µM
- TGI (786-0 renal): > 100 µM
- TGI (BT-549 breast): > 100 µM
- TGI (SNB-19 CNS): > 100 µM
- TGI (PC-3 prostate): > 100 µM
- TGI (EKVX NSCLC): > 100 µM
- TGI (KM12 colon): > 100 µM
- TGI (HCC-2998 colon): > 100 µM
- TGI (RPMI-8226 leukemia): > 100 µM
- TGI (A549 NSCLC): > 100 µM
- TGI (RXF 393 renal): > 100 µM
- TGI (A498 renal): > 100 µM
- TGI (SK-MEL-28 melanoma): > 100 µM
- TGI (M14 melanoma): > 100 µM
- TGI (MDA-MB-231 breast): > 100 µM
- TGI (HOP-62 NSCLC): > 100 µM
- TGI (LOX IMVI melanoma): > 100 µM
- TGI (OVCAR-8 ovarian): > 100 µM
- TGI (SK-OV-3 ovarian): > 100 µM
- TGI (HL-60(TB) leukemia): > 100 µM
- TGI (OVCAR-5 ovarian): > 100 µM
- TGI (HOP-92 NSCLC): > 100 µM
- TGI (OVCAR-3 ovarian): > 100 µM
- TGI (DU-145 prostate): > 100 µM
- TGI (K-562 leukemia): > 100 µM
- TGI (HCT-116 colon): > 100 µM
- TGI (SK-MEL-5 melanoma): > 100 µM
- TGI (OVCAR-4 ovarian): > 100 µM

SMILES: CCCCC(SC(=S)N(CC)CC)C(=O)Nc1nc(CC(=O)OCC)cs1 (stereo unspecified)
- GI50 (SW-620 colon): 38 µM
- TGI (SW-620 colon): > 100 µM
- GI50 (UACC-62 melanoma): 29.8 µM
- TGI (UACC-62 melanoma): > 100 µM
- GI50 (SF-268 CNS): 54.3 µM
- TGI (SF-268 CNS): > 100 µM
- GI50 (MALME-3M melanoma): 24.8 µM
- TGI (MALME-3M melanoma): > 100 µM
- GI50 (T-47D breast): 24.7 µM
- TGI (T-47D breast): > 100 µM
- GI50 (IGROV1 ovarian): 37.4 µM
- TGI (IGROV1 ovarian): > 100 µM
- GI50 (ACHN renal): 67.3 µM
- TGI (ACHN renal): > 100 µM
- GI50 (SNB-75 CNS): 67 µM
- TGI (SNB-75 CNS): > 100 µM
- GI50 (NCI/ADR-RES ovarian): 42.9 µM
- TGI (NCI/ADR-RES ovarian): > 100 µM
- GI50 (HCT-15 colon): 48.5 µM
- TGI (HCT-15 colon): > 100 µM
- GI50 (U251 CNS): 42.1 µM
- TGI (U251 CNS): > 100 µM
- GI50 (UACC-257 melanoma): 35.6 µM
- TGI (UACC-257 melanoma): > 100 µM
- GI50 (UO-31 renal): 47.6 µM
- TGI (UO-31 renal): > 100 µM
- GI50 (HT29 colon): 32.7 µM
- TGI (HT29 colon): > 100 µM
- GI50 (TK-10 renal): 82.9 µM
- TGI (TK-10 renal): > 100 µM
- GI50 (SF-295 CNS): 38.6 µM
- TGI (SF-295 CNS): > 100 µM
- GI50 (CAKI-1 renal): 91.7 µM
- TGI (CAKI-1 renal): > 100 µM
- GI50 (NCI-H226 lung): 58 µM
- TGI (NCI-H226 lung): > 100 µM
- GI50 (NCI-H522 lung): 13.3 µM
- TGI (NCI-H522 lung): > 100 µM
- GI50 (HS 578T breast): 47.9 µM
- TGI (HS 578T breast): > 100 µM
- GI50 (SR leukemia): 29.4 µM
- TGI (SR leukemia): > 100 µM
- GI50 (SK-MEL-2 melanoma): 29.2 µM
- TGI (SK-MEL-2 melanoma): 86 µM
- GI50 (MOLT-4 leukemia): 20.2 µM
- TGI (MOLT-4 leukemia): > 100 µM
- GI50 (MDA-MB-435): 31.4 µM
- TGI (MDA-MB-435): > 100 µM
- GI50 (786-0 renal): > 100 µM
- TGI (786-0 renal): > 100 µM
- GI50 (BT-549 breast): 39 µM
- TGI (BT-549 breast): > 100 µM
- GI50 (SNB-19 CNS): 56.9 µM
- TGI (SNB-19 CNS): > 100 µM
- GI50 (PC-3 prostate): 776 nM
- TGI (PC-3 prostate): > 100 µM
- GI50 (EKVX NSCLC): 45.7 µM
- TGI (EKVX NSCLC): > 100 µM
- GI50 (KM12 colon): 31.6 µM
- TGI (KM12 colon): > 100 µM
- GI50 (HCC-2998 colon): 59.3 µM
- TGI (HCC-2998 colon): > 100 µM
- GI50 (RPMI-8226 leukemia): 22 µM
- TGI (RPMI-8226 leukemia): 85.2 µM
- GI50 (A549 NSCLC): 30.8 µM
- TGI (A549 NSCLC): > 100 µM
- GI50 (RXF 393 renal): 32.5 µM
- TGI (RXF 393 renal): > 100 µM
- GI50 (A498 renal): 54.3 µM
- TGI (A498 renal): > 100 µM
- GI50 (SN12C renal): 77.8 µM
- TGI (SN12C renal): > 100 µM
- GI50 (SK-MEL-28 melanoma): 47.3 µM
- TGI (SK-MEL-28 melanoma): > 100 µM
- GI50 (M14 melanoma): 33.7 µM
- TGI (M14 melanoma): > 100 µM
- GI50 (MDA-MB-231 breast): 47.8 µM
- TGI (MDA-MB-231 breast): > 100 µM
- GI50 (HOP-62 NSCLC): > 100 µM
- TGI (HOP-62 NSCLC): > 100 µM
- GI50 (SF-539 CNS): 34.6 µM
- TGI (SF-539 CNS): > 100 µM
- GI50 (LOX IMVI melanoma): 29.6 µM
- TGI (LOX IMVI melanoma): > 100 µM
- GI50 (OVCAR-8 ovarian): 41.4 µM
- TGI (OVCAR-8 ovarian): > 100 µM
- GI50 (SK-OV-3 ovarian): 75.6 µM
- TGI (SK-OV-3 ovarian): > 100 µM
- GI50 (HL-60(TB) leukemia): 28.6 µM
- TGI (HL-60(TB) leukemia): 98.5 µM
- GI50 (OVCAR-5 ovarian): 40.3 µM
- TGI (OVCAR-5 ovarian): > 100 µM
- GI50 (HOP-92 NSCLC): 53.1 µM
- TGI (HOP-92 NSCLC): > 100 µM
- GI50 (OVCAR-3 ovarian): 13.7 µM
- TGI (OVCAR-3 ovarian): > 100 µM
- GI50 (DU-145 prostate): 98.3 µM
- TGI (DU-145 prostate): > 100 µM
- GI50 (K-562 leukemia): 25 µM
- TGI (K-562 leukemia): > 100 µM
- GI50 (HCT-116 colon): 29.8 µM
- TGI (HCT-116 colon): > 100 µM
- GI50 (SK-MEL-5 melanoma): 13.5 µM
- TGI (SK-MEL-5 melanoma): 30.9 µM
- GI50 (OVCAR-4 ovarian): 30.6 µM
- TGI (OVCAR-4 ovarian): > 100 µM
